Source: PMC6934184, “Selective DNA-PKcs inhibition extends the therapeutic index of localized radiotherapy and chemotherapy” (The Journal of Clinical Investigation, 2019)

Biological target: T1, MET (cMet) (Homo sapiens, UniProt P08581)
T1 construct: purchased Thermo Fisher Scientific (Life Technologies) SelectScreen
Assay: SelectScreen Z'LYTE
Assay type: biochemical
Method in brief: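 SelectScreen broad panel; activity (Z'LYTE, Adapta) plus binding formats. ATP: Km app for CSF1R Z'LYTE; 10 for CAMK1 Adapta. Readout = % per kinase.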

T1 sequence (P08581 25-1390): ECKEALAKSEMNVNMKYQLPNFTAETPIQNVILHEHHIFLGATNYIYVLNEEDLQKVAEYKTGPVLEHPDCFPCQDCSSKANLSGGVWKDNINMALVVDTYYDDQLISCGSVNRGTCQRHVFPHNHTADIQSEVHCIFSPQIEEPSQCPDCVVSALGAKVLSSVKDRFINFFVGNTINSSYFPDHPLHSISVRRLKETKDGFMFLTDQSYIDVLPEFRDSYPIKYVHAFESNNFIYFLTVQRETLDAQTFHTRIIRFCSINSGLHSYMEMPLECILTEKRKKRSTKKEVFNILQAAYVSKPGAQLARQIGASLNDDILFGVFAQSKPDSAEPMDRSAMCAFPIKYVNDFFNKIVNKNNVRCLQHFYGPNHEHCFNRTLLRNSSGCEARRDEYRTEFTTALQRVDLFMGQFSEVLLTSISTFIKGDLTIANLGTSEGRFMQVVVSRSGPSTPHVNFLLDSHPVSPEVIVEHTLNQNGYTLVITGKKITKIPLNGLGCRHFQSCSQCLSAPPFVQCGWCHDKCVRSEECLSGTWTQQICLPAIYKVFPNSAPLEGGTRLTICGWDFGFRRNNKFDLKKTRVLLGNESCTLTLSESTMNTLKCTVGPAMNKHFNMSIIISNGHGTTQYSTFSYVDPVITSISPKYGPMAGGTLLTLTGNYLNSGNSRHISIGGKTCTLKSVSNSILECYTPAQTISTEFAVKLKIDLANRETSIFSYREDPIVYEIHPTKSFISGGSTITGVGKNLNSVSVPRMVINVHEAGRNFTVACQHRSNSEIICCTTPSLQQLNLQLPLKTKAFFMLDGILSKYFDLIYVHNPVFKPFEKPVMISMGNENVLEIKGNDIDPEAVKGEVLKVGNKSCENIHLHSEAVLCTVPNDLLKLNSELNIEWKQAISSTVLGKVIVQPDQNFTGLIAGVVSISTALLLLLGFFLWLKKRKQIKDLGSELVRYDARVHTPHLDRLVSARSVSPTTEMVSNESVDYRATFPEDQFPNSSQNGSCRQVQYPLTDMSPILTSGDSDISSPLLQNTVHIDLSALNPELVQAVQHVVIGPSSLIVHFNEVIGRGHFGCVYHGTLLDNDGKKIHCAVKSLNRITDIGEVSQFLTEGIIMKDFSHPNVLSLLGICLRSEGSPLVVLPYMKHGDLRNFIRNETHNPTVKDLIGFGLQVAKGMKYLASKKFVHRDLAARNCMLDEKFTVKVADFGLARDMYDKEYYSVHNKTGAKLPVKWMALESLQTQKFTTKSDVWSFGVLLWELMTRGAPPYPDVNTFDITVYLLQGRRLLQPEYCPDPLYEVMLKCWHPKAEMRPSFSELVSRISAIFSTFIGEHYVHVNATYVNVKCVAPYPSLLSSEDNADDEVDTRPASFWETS

CN(C(=O)CN1CCOCC1)c1ccc2sc3c(-c4cccc5c(=O)cc(N6CC7CCC(C6)O7)oc45)cccc3c2c1 [NU5455]
inhibition at 1 µM: -15.1%
